{"source": "patent US20070231407A1", "about": "“Method of treating gallium-nitrate resistant tumors using gallium-containing compounds” (priority 2006, published 2007)", "key": {"CCRF-CEM cells": {"test_system": "CCRF-CEM cells", "experiment": "MTT cell growth assay, CCRF-CEM cells (GaN-sensitive)", "assay_type": "cell-based, human", "details": "for IC50: MTT assay, 72 h incubation, read-out: IC50, inhibition of T lymphoma CCRF-CEM cell growth; for Inhibition of CCRF-CEM cell growth (in words): increasing concentrations, 72 h, MTT, FIG. 2", "method": "CCRF-CEM cells were obtained from ATCC.\n(§1) Mantle cell lymphoma (HBL-2 (Human B-cell lymphoma-derived cell line), Granta, JVM-2, NCEB-1, Z138C) and DoHH2 cell lines were obtained from the British Columbia Cancer Agency. p53 cell lines were obtained from the NCI. Gallium maltolate and gallium nitrate were obtained from Titan Pharmaceuticals Inc. (San Francisco, Calif.) and Genta Incorporated (Berkley Heights, N.J.), respectively. Cell proliferation was measured by MTT assay (Mosmann T. “Rapid colorimetric assay for cellular growth and survival: Application to proliferation and cytotoxicity assays”. J Immunol Methods 1983; 65:55-63, incorporated by reference here in its entirety). Caspase-3 activity was measured by ApoOne assay (Promega, Madison, Wis.). Assays for cellular ^59Fe-transferrin uptake and ^125I-transferrin binding were used as previously described in Chitambar, 1997.\n(§2) CCRF-CEM cells were plated at a density of 2×10^5 cells/ml in microwell plates (100 μL cell suspension per well) in the presence of increasing concentrations of gallium maltolate or maltol (subsequently referred to as the additives). After 72 h of incubation, 10 μL MTT (3-(4,5-dimethlythiazol-2-yl)-2,5-diphenyltetrazolium bromide) was added to each well and the incubation continued for 4 h at 37° C. Cells were then solubilized by the addition of 100 μL of 0.4 N HCl in isopropanol to each well and the absorbance of each well was read at 570 nm using a microplate reader. The effect of the additives on cell proliferation was determined by comparing the absorbance from wells containing the additives with the absorbance from wells in which the additives were omitted (decreased absorbance signifies decreased cell proliferation). Cell growth was expressed as a percentage of control (cell growth in the absence of additives). Cell proliferation was assessed after 72 h of incubation with gallium maltolate or maltol.\nCell growth was determined by MTT assay as described in Example 1 above. Values shown are means +/−S.E. (n=4).\nTo determine the effect of GaM on the growth of gallium nitrate-resistant (GnR) and -sensitive (GnS) cells, cells were plated in microwell plates and incubated with GaM. Cellular proliferation was measured by MTT assay after 72 h incubation with GaM. Values shown are means +/−S.E. (n=4)."}, "[1]": {"test_system": "GaN-resistant CCRF-CEM cells", "experiment": "MTT cell growth assay, gallium nitrate-resistant (GnR) CCRF-CEM cells", "assay_type": "cell-based, human", "method": "(§3) Mantle cell lymphoma (HBL-2 (Human B-cell lymphoma-derived cell line), Granta, JVM-2, NCEB-1, Z138C) and DoHH2 cell lines were obtained from the British Columbia Cancer Agency. p53 cell lines were obtained from the NCI. […] Cell proliferation was measured by MTT assay (Mosmann T. “Rapid colorimetric assay for cellular growth and survival: Application to proliferation and cytotoxicity assays”. J Immunol Methods 1983; 65:55-63, incorporated by reference here in its entirety). Caspase-3 activity was measured by ApoOne assay (Promega, Madison, Wis.). Assays for cellular ^59Fe-transferrin uptake and ^125I-transferrin binding were used as previously described in Chitambar, 1997.\nas §2, with “After 72 h of incubation, 10 μL MTT (3-(4,5-dimethlythiazol-2-yl)-2,5-diphenyltetrazolium bromide) was added to each well and the incubation continued for 4 h at 37° C.” left out, “Cell growth was expressed as a percentage of control (cell growth in the absence of additives). Cell proliferation was assessed after 72 h of incubation with gallium maltolate or maltol.” left out"}, "[2]": {"test_system": "MCL cell lines HBL2, JVM2, Z138C, and Granta", "experiment": "MTT cell growth assay, mantle cell lymphoma (MCL) cell lines", "assay_type": "cell-based, human", "details": "range over the four cell lines, 72 h, read-out: IC50, growth inhibition of MCL cell lines HBL2, JVM2, Z138C, and Granta", "method": "Mantle cell lymphoma (HBL-2 (Human B-cell lymphoma-derived cell line), Granta, JVM-2, NCEB-1, Z138C) and DoHH2 cell lines were obtained from the British Columbia Cancer Agency. p53 cell lines were obtained from the NCI. Gallium maltolate and gallium nitrate were obtained from Titan Pharmaceuticals Inc. (San Francisco, Calif.) and Genta Incorporated (Berkley Heights, N.J.), respectively. Cell proliferation was measured by MTT assay (Mosmann T. “Rapid colorimetric assay for cellular growth and survival: Application to proliferation and cytotoxicity assays”. J Immunol Methods 1983; 65:55-63, incorporated by reference here in its entirety). Caspase-3 activity was measured by ApoOne assay (Promega, Madison, Wis.). […]\nas §2, with “After 72 h of incubation, 10 μL MTT (3-(4,5-dimethlythiazol-2-yl)-2,5-diphenyltetrazolium bromide) was added to each well and the incubation continued for 4 h at 37° C.” left out, “Cell growth was expressed as a percentage of control (cell growth in the absence of additives). Cell proliferation was assessed after 72 h of incubation with gallium maltolate or maltol.” left out"}, "p53 wt TK-6 cells": {"test_system": "p53 wt TK-6 cells", "experiment": "MTT cell growth assay, p53 wt TK-6 cells", "assay_type": "cell-based, human", "details": "72 h", "method": "as §3\nas §2, with “After 72 h of incubation, 10 μL MTT (3-(4,5-dimethlythiazol-2-yl)-2,5-diphenyltetrazolium bromide) was added to each well and the incubation continued for 4 h at 37° C.” left out, “Cell growth was expressed as a percentage of control (cell growth in the absence of additives). Cell proliferation was assessed after 72 h of incubation with gallium maltolate or maltol.” left out"}, "p53 null HN-32 cells": {"test_system": "p53 null HN-32 cells", "experiment": "MTT cell growth assay, p53 null HN-32 cells", "assay_type": "cell-based, human", "details": "72 h", "method": "as §3\nas §2, with “After 72 h of incubation, 10 μL MTT (3-(4,5-dimethlythiazol-2-yl)-2,5-diphenyltetrazolium bromide) was added to each well and the incubation continued for 4 h at 37° C.” left out, “Cell growth was expressed as a percentage of control (cell growth in the absence of additives). Cell proliferation was assessed after 72 h of incubation with gallium maltolate or maltol.” left out"}, "p53 mutant WTK-1 cells": {"test_system": "p53 mutant WTK-1 cells", "experiment": "MTT cell growth assay, p53 mutant WTK-1 cells", "assay_type": "cell-based, human", "details": "72 h", "method": "as §3\nas §2, with “After 72 h of incubation, 10 μL MTT (3-(4,5-dimethlythiazol-2-yl)-2,5-diphenyltetrazolium bromide) was added to each well and the incubation continued for 4 h at 37° C.” left out, “Cell growth was expressed as a percentage of control (cell growth in the absence of additives). Cell proliferation was assessed after 72 h of incubation with gallium maltolate or maltol.” left out"}, "HBL-2 cells [3]": {"test_system": "HBL-2 cells", "experiment": "MTT cell proliferation assay, mantle cell lymphoma HBL-2 cells", "assay_type": "cell-based, human", "details": "72 h, FIG. 3", "method": "Mantle cell lymphoma (HBL-2 (Human B-cell lymphoma-derived cell line), Granta, JVM-2, NCEB-1, Z138C) and DoHH2 cell lines were obtained from the British Columbia Cancer Agency. p53 cell lines were obtained from the NCI. […] (San Francisco, Calif.) and Genta Incorporated (Berkley Heights, N.J.), respectively. Cell proliferation was measured by MTT assay (Mosmann T. “Rapid colorimetric assay for cellular growth and survival: Application to proliferation and cytotoxicity assays”. J Immunol Methods 1983; 65:55-63, incorporated by reference here in its entirety). Caspase-3 activity was measured by ApoOne assay (Promega, Madison, Wis.). Assays for cellular ^59Fe-transferrin uptake and ^125I-transferrin binding were used as previously described in Chitambar, 1997. […] Cells were then solubilized by the addition of 100 μL 0.4 N HCl in isopropanol to each well and the absorbance of each well was read at 570 nm using a spectrophotometer. Cell proliferation was measured after a 72 h incubation period. The effect of the additives on cell proliferation was determined by comparing the absorbance from wells with the additives with the absorbance from wells in which the additives were omitted (decreased absorbance signifies decreased cell proliferation). Cell growth was expressed as a percentage of control (cell growth in the absence of additives)."}, "caspase-3 [4]": {"test_system": "caspase-3", "experiment": "Caspase-3 activation (apo-One assay) in HBL-2 cells", "assay_type": "cell-based, human", "details": "for Caspase-3 activity in exposed cells, dose dependence: see FIG. 4", "method": "as §1\nAfter incubation with these compounds, the cells were analyzed for apoptosis using the commercially available apo-One™ assay that measures caspase-3 activation. Data points are the means and S.E. of an experiment performed in triplicate."}, "caspase-3 [5]": {"test_system": "caspase-3", "experiment": "Caspase-3 activity (apo-One assay) in GnR CCRF-CEM cells", "assay_type": "cell-based, human", "details": "24 h incubation, FIG. 5D", "method": "as §1\nAfter the incubation period, caspase-3 activity was measured by apo-One™ assay."}, "HBL-2 cells [6]": {"test_system": "HBL-2 cells", "experiment": "Cellular 59Fe-transferrin (iron) uptake by HBL-2 cells", "assay_type": "cell-based, human", "details": "24 h, increasing concentrations of GaM, FIG. 7", "method": "as §1\nHBL-2 cells were incubated in complete medium in the presence of increasing concentrations of GaM. Radioiron (^59Fe-transferrin) was added to cells at the start of the incubation. After 24 h, cells were harvested, washed with phosphate buffered saline to remove unincorporated ^59Fe and centrifuged to pellet the cells. ^59Fe radioactivity in the cell pellet was counted in a gamma counter. The results showing that the amount of radioiron taken up by cells decreases with increasing concentrations of GaM are depicted in FIG. 7."}, "[7]": {"test_system": "transferrin (Tf) receptor", "experiment": "125I-transferrin binding assay, cell surface transferrin receptor density in HBL-2 cells", "assay_type": "cell-based, human", "details": "FIG. 8", "method": "as §1\nTo determine the mechanism by which GaM acts on cells, cellular transferrin receptor expression was evaluated in HBL-2 cells. The effect of GaM on cellular transferrin receptor expression was determined using a ^125I-transferrin (Tf) binding assay that measures the binding of the ligand Tf to its receptor (TfR). HBL-2 cells were incubated with increasing concentrations of GaM for 24 and 48 h and then analyzed for Tf binding using an established method. The amount of radioactive Tf bound to cellular TfR was calculated using Scatchard analysis."}, "lymphoma cell lines": {"test_system": "lymphoma cell lines", "experiment": "Annexin V staining of cells exposed to gallium compounds", "assay_type": "cell-based", "details": "cells exposed to GaN or GaM"}}, "data": [{"molecule": "Cc1occc(=O)c1[O-].Cc1occc(=O)c1[O-].Cc1occc(=O)c1[O-].[Ga+3]", "note": "[GaM, gallium maltolate]", "values": [{"measurement": "IC50", "setting": "CCRF-CEM cells", "result": 29, "unit": "µM"}, {"measurement": "Inhibition of CCRF-CEM cell growth (in words)", "setting": "CCRF-CEM cells", "result": "inhibited"}, {"measurement": "Proliferation of GnR cells resistant to GaN (in words)", "setting": "[1]; FIG. 5", "result": "inhibits proliferation"}, {"measurement": "IC50", "setting": "[1]; MTT assay, 72 h incubation, read-out: IC50, growth inhibition of GaN-resistant cells", "result": 70, "unit": "µM"}, {"measurement": "IC50", "setting": "[2]", "result": "15 to 30", "unit": "µM"}, {"measurement": "IC50", "setting": "p53 wt TK-6 cells", "result": 18, "unit": "µM"}, {"measurement": "Growth of p53 wt TK-6 cells (in words)", "setting": "p53 wt TK-6 cells; FIG. 6", "result": "inhibited to a similar extent"}, {"measurement": "IC50", "setting": "p53 null HN-32 cells", "result": 45, "unit": "µM"}, {"measurement": "Growth of p53 null HN-32 cells (in words)", "setting": "p53 null HN-32 cells; FIG. 6", "result": "inhibited to a similar extent"}, {"measurement": "IC50", "setting": "p53 mutant WTK-1 cells", "result": 45, "unit": "µM"}, {"measurement": "Growth of p53 mutant WTK-1 cells (in words)", "setting": "p53 mutant WTK-1 cells; FIG. 6", "result": "inhibited to a similar extent"}, {"measurement": "Inhibition of HBL-2 cell proliferation, GaM compared with GaN (in words)", "setting": "HBL-2 cells [3]", "result": "much lower concentrations of gallium were required to inhibit cell proliferation"}, {"measurement": "Caspase-3 activation in HBL-2 cells", "setting": "caspase-3 [4]; 48 h incubation, similar concentrations of GaM and GaN, FIG. 4", "result": "activated"}, {"measurement": "Caspase-3 activity in exposed cells, dose dependence", "setting": "caspase-3 [4]", "result": "dose-dependent increase"}, {"measurement": "Caspase-3 activation in GnR cells", "setting": "caspase-3 [5]", "result": "activates caspase-3"}, {"measurement": "Amount of radioiron (59Fe) taken up by cells", "setting": "HBL-2 cells [6]", "result": "decreases"}, {"measurement": "Number of TfRs on the cell surface", "setting": "[7]; 24 h, 25 and 50 μM GaM", "result": "increase the number of TfRs"}, {"measurement": "Number of TfRs on the cell surface", "setting": "[7]; 48 h, 25 μM GaM", "result": "increases TfR number"}, {"measurement": "Annexin V staining", "setting": "lymphoma cell lines", "result": "increase"}]}, {"molecule": "O=[N+]([O-])[O-].O=[N+]([O-])[O-].O=[N+]([O-])[O-].[Ga+3]", "note": "[GaN, gallium nitrate, reference compound]", "values": [{"measurement": "IC50", "setting": "CCRF-CEM cells", "result": 103, "unit": "µM"}, {"measurement": "IC50", "setting": "[2]", "result": "45 to 400", "unit": "µM"}, {"measurement": "Caspase-3 activity in exposed cells, dose dependence", "setting": "caspase-3 [4]", "result": "dose-dependent increase"}, {"measurement": "Caspase-3 activation in GnR cells", "setting": "caspase-3 [5]", "result": "not"}, {"measurement": "Annexin V staining", "setting": "lymphoma cell lines", "result": "increase"}]}, {"molecule": "Cc1occc(=O)c1O", "note": "[Maltol, maltol, reference compound]", "values": [{"measurement": "Inhibition of CCRF-CEM cell growth (in words)", "setting": "CCRF-CEM cells", "result": "did not inhibit cell growth"}]}]}
